Assay results: article PMC2784364, “VX-166: a novel potent small molecule caspase inhibitor as a potential therapy for sepsis” (Critical Care, 2009)
Like-named read-outs stand apart in the source and are kept apart here.

Experiments:
CD-1 mice = test: Endotoxic shock in the mouse (LPS 20 mg/kg iv), survival; format: in vivo
Method: Endotoxic shock studies were approved by the Vertex Pharmaceuticals Institutional Animal Care and Use Committee. Adult male CD-1 mice (weighing 30 to 32 g; Charles River Laboratories, Wilmington, MA, USA) were administered LPS (from E. coli serotype 0111:B4, Sigma-Aldrich, St. Louis, MO, USA) at 20 mg/kg iv and survival was monitored for 96 hours (n = 28 per group). VX-166 or vehicle (10% propylene glycol: 90% sodium phosphate buffer pH 8) were administered by repeat iv bolus at 0 hours (co-injection with LPS), 4, 8 and 12 hours post-LPS. VX-166 was administered at 1, 3, 10 or 30 mg/kg.

[1] = test system: IL-18 release from peripheral blood mononuclear cells; test: IL-18 release from SAC-treated PBMC; format: cell-based; conditions: overnight
Method: Peripheral blood mononuclear cells (PBMC) from healthy donors were isolated by Ficoll-Paque gradient centrifugation from buffy coats obtained from the National Blood Transfusion Service (Bristol, UK). For IL-1β release, 5 × 10^5 cells/ml were then stimulated with 50 ng/ml lipopolysaccharide (LPS) from Escherichia coli (Sigma-Aldrich Ltd., Poole, UK) in the presence or absence of VX-166 and incubated for 18 hours. Secretion of IL-1β into the supernatant was determined by ELISA (R&D Systems, Abingdon, UK) following the manufacturer's instructions. For IL-18 release, 7.5 × 10^5 cells/ml were stimulated with 6.25 × 10^-4% (w/v) Staphylococcus aureus cell suspension (SAC; Sigma-Aldrich Ltd., Poole, UK) in the presence or absence of VX-166 and incubated overnight. The IL-18 content in the supernatants was quantified by ELISA (Caltag-MedSystems Ltd., Buckingham, UK) following the manufacturer's instructions. In both assays PBMC viability was assessed after the 18 hours incubation time using MTS assay (Promega UK Ltd., Southampton, UK) to ensure that the reduction in cytokine release was not caused by a cytotoxic effect of the compound.

Jurkat cells = test: TNF-α/cycloheximide induced apoptosis in Jurkat cells, Annexin V; format: cell-based; conditions: Human Jurkat cell line/Annexin V, n = 4, read-out: IC50, inhibition of apoptosis
Method: Jurkat cells were obtained from LGC Standards (Teddington, UK) and were grown in RPMI 1640, 10% FCS, 2 mM L-glutamine, 100 U/ml penicillin and 0.1 mg/ml streptomycin (all from Sigma Aldrich Ltd., Poole, UK) at 37°C in 5% CO2/95% humidity. Receptor- or stress-mediated apoptosis (2 × 10^5 cells/ml) was induced by addition of either anti-Fas antibody CH-11 (10 ng/ml, Millipore UK Ltd., Watford, UK), TNF-α (20 ng/ml, R&D Systems, Abingdon, UK) with cycloheximide (112 ng/ml, Sigma Aldrich Ltd., Poole, UK) or staurosporine (350 ng/ml, Sigma Aldrich Ltd., Poole, UK). VX-166 was diluted into DMSO (10 mM), further diluted in media and added at a range of concentrations. Cells were then incubated for 18 hours. Apoptotic cells were then labelled with Cy5-conjugated Annexin-V (BD Biosciences, Oxford, UK) and detected using a FMAT™ 8100 Fluorimetric Microassay Technology Reader (Applied Biosystems, Warrington, UK). For the experiments using anti-Fas antibody, apoptosis was additionally measured using a Cell Death Detection ELISA kit (Roche Diagnostics Ltd., Lewes, UK) following the manufacturer's instructions.

## CCC(C(=O)NC(CC(=O)O)C(=O)COc1c(F)c(F)cc(F)c1F)n1cccc(NC(=O)OC)c1=O (stereo not drawn) [VX-166]
CD-1 mice; LPS 20 mg/kg iv, 30 mg/kg iv at 0, 4, 8, 12 hours
  survival rate at 96 hours compared with vehicle control: more than doubled
CD-1 mice; LPS 20 mg/kg iv, 1, 3, 10 or 30 mg/kg repeat iv bolus at 0, 4, 8 and 12 hours post-LPS, vs vehicle
  survival over 96 hours: significantly improved survival in a dose-dependent fashion
CD-1 mice; different batch of LPS, 30 mg/kg iv at 0, 4, 8, 12 hours, P < 0.0001
  survival compared with vehicle control, second study: substantially improved survival
[1]; Homo sapiens, PBMC, n = 4, read-out: IC50 ± SD, inhibition of IL-18 release
  IC50: < 0.5 µM
[1]; SAC-treated human PBMC, n = 4, read-out: IC50 ± SD, inhibition of IL-18 release
  IC50: 0.45 ± 0.17 µM
Jurkat cells
  IC50: 0.12 ± 0.05 µM
